Laboratory results: ChEMBL document CHEMBL1201862, “PubChem BioAssay data set” (2004)
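Assay format: 96-well plates, 48-hour exposure. GI50 = concentration required for 50% inhibition of growth.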 Calls of active or inactive are those of the source. Rule as the data show it: active = GI50 up to about 1.1 µM and inactive = higher.

Legend:
Experiment in all cases: NCI anticancer screen, dose series, 48 h
[1] = test system: LOX IMVI
[2] = test system: OVCAR-8
[3] = test system: SNB-75
[4] = test system: SF-539
[5] = test system: SK-MEL-28
[6] = test system: KM12
[7] = test system: HT-29
[8] = test system: HCC 2998
[9] = test system: UACC-62
[10] = test system: HOP-92
[11] = test system: HOP-62
[12] = test system: SF-268
[13] = test system: KM-20L2
[14] = test system: SW-620
[15] = test system: EKVX
[16] = test system: NCI-H226

Measured: GI50

CCC1C(=O)OCc2c1cc1n(c2=O)Cc2ccccc2-1 (stereo not drawn)
inactive: [1] > 100 µM | [2] > 100 µM | [3] > 100 µM | [4] > 100 µM | [5] > 100 µM | [6] > 100 µM | [7] > 100 µM | [8] > 100 µM | [9] > 100 µM | [10] > 100 µM | [11] > 100 µM | [12] > 100 µM | [13] > 100 µM | [14] > 100 µM | [15] > 100 µM | [16] > 100 µM

O=C(NCc1ccccc1)C1C(=O)C(=O)N(Cc2ccccc2)C1=O (stereo not drawn)
inactive: [1] > 100 µM | [2] > 100 µM | [3] > 100 µM | [4] > 100 µM | [5] > 100 µM | [6] > 100 µM | [7] > 100 µM | [8] > 100 µM | [9] > 100 µM | [10] > 100 µM | [11] > 100 µM | [12] > 100 µM | [13] > 100 µM | [14] > 100 µM | [15] > 100 µM | [16] > 100 µM

S=c1[nH]c(=S)c2nnn(-c3ccccc3)c2[nH]1
inactive: [1] > 100 µM | [2] > 100 µM | [3] > 100 µM | [4] > 100 µM | [5] > 100 µM | [6] > 100 µM | [7] > 100 µM | [8] > 100 µM | [9] > 100 µM | [10] > 100 µM | [11] > 100 µM | [12] > 100 µM | [13] > 100 µM | [14] > 100 µM | [15] > 100 µM | [16] > 100 µM

CCc1cccc(C)c1NC(=O)C1=C(C)NC(C)=C(C(=O)Nc2c(C)cccc2CC)C1c1ccc2c(c1)OCO2
inactive: [1] 18.3 µM | [2] 29.6 µM | [3] 9.84 µM | [4] 19.7 µM | [5] 15.6 µM | [6] 16.4 µM | [7] 20.8 µM | [8] 19.7 µM | [10] 18.2 µM | [11] 20.7 µM | [12] 20.3 µM | [13] 23.9 µM | [14] 20.2 µM | [15] 20.5 µM | [16] 19.8 µM

O=Cn1c2ccccc2c2ccccc21
inactive: [1] > 100 µM | [2] > 100 µM | [4] > 100 µM | [5] > 100 µM | [6] > 100 µM | [8] > 100 µM | [9] > 100 µM | [10] > 100 µM | [11] > 100 µM | [12] > 100 µM | [13] > 100 µM | [14] > 100 µM | [15] > 100 µM

Cc1c2c(cc3c1C(=O)C(=O)C1=C3OC[C@@H]1C)C(C)(C)CCC2
inactive: [1] 7.43 µM | [2] 18.2 µM | [3] 26.1 µM | [4] 16.3 µM | [5] 14 µM | [6] 11.9 µM | [7] 16.6 µM | [8] 20.4 µM | [9] 13.2 µM | [10] 21.3 µM | [11] 21.5 µM | [12] 14.1 µM | [13] 19.5 µM | [14] 15.1 µM | [15] 20.9 µM

COc1ccc(C2=Nc3ccccc3SC(C)C2)cc1 (stereo not drawn)
inactive: [1] 38.4 µM | [2] > 100 µM | [3] > 100 µM | [4] > 100 µM | [5] > 100 µM | [6] 32.2 µM | [7] 62.1 µM | [8] > 100 µM | [9] > 100 µM | [10] > 100 µM | [11] > 100 µM | [12] > 100 µM | [13] > 100 µM | [14] > 100 µM | [15] > 100 µM | [16] > 100 µM

CCOc1ccccc1NC(=O)CC1C(=O)Nc2ccccc2[S+]1[O-] (stereo not drawn)
inactive: [1] > 100 µM | [2] 43.2 µM | [3] > 100 µM | [4] > 100 µM | [5] > 100 µM | [7] > 100 µM | [8] > 100 µM | [9] 26.3 µM | [10] 43.1 µM | [12] > 100 µM | [13] > 100 µM | [14] > 100 µM | [15] 43 µM | [16] 60.5 µM

O=C1OCc2nc3c(c(-c4ccccc4C(F)(F)F)c21)C(=O)OC3
inactive: [1] > 100 µM | [2] > 100 µM | [4] > 100 µM | [5] > 100 µM | [6] > 100 µM | [8] > 100 µM | [9] > 100 µM | [10] > 100 µM | [11] > 100 µM | [12] > 100 µM | [13] > 100 µM | [14] > 100 µM | [15] > 100 µM

NC(=O)NNC(=O)CCn1[nH]c(=O)c(Cl)c(Cl)c1=O
inactive: [1] > 100 µM | [2] > 100 µM | [3] > 100 µM | [5] > 100 µM | [7] > 100 µM | [8] > 100 µM | [9] > 100 µM | [10] > 100 µM | [11] > 100 µM | [12] > 100 µM | [13] > 100 µM | [14] > 100 µM | [15] > 100 µM | [16] > 100 µM
